Data taken from patent US10407467B2, “Polymyxin derivatives and their use in combination therapy together with different antibiotics” (priority 2013, dated 2019).
Structures can show the parent of a compound that is named as a salt. Where two headings read alike, the source gives them in different places. Numbered stars: 1 amine (or outer) side, 2 acyl side, 3 side chain; on linkers, the order of the positions; unused ones are H or OH. Bridge positions count the residues as written; N and C are the ends. Square brackets hold non-standard residues; d marks the D form. Peptide text beside a SMILES is read from it. * marks the point of attachment. ξ: configuration not given here. NHCH2(1,3-C6H4)CH2CO = O=C(Cc1cccc(CN[*:1])c1)[*:2]; X6 = N[C@@H](CC(=O)*)c1ccc2ccccc2c1; ξβ3hGly(cHex) = NC(CC(=O)*)C1CCCCC1; Thr(3ξ) = CC(O)[C@H](N)C(=O)O; Dab = NCC[C@H](N)C(=O)O; Dap = NC[C@H](N)C(=O)O

What was measured:
P. aeruginosa ATCC 27853 = conditions: for effect on thigh burdens: 2 mg/kg IV three times at 1, 3.5 and 6 hours post infection; for reduction of thigh burdens: 4 mg/kg IV three times at 1, 3.5 and 6 hours post infection; for Log reduction from vehicle (CFU/g): ATCC 27853, in vivo, iv, 6 h
Klebsiella pneumoniae [1] = test: MIC, compound in combination with a second agent (broth microdilution); type: cell-based; conditions: 1:1 (wt:wt) combination with Rifampicin, MIC = total drug concentration; for MIC K. pneumoniae ATCC-BAA-2146: strain ATCC-BAA-2146
How it was run: (§1)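 Read-out is the total-drug MIC of a 1:1 weight ratio combination with another agent, e.g. rifampicin. Duplicates within 2-fold gave the lower value; wider spread meant a non-valid assay. Where compounds were tested multiple times, the mode is given.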

Acinetobacter baumannii [2] = test: as above; type: cell-based; conditions: 1:1 (wt:wt) combination with Rifampicin, MIC = total drug concentration; for MIC A. baumannii ATCC BAA-747: strain ATCC BAA-747; for MIC A. baumannii CCUG57249: strain CCUG57249; for MIC A. baumannii NCTC 13424: strain NCTC 13424
How it was run: as §1

Pseudomonas aeruginosa [3] = test: as above; type: cell-based; conditions: 1:1 (wt:wt) combination with Rifampicin, MIC = total drug concentration; for MIC P. aeruginosa ATCC 27853: strain ATCC 27853; for MIC P. aeruginosa ATCC CRM-9027: strain ATCC CRM-9027; for MIC P. aeruginosa ATCC-47: strain ATCC-47; for MIC P. aeruginosa CCUG 59626: strain CCUG 59626
How it was run: as §1

Escherichia coli [4] = test: as above; type: cell-based; conditions: 1:1 (wt:wt) combination with Rifampicin, MIC = total drug concentration; for MIC E. coli ATCC25922: strain ATCC25922
How it was run: as §1

Klebsiella pneumoniae [5] = test: MIC, sole activity (no second agent); type: cell-based; conditions: in the absence of Rifampicin; for MIC K. pneumoniae ATCC-BAA2146: strain ATCC-BAA2146; for MIC K. pneumoniae CCUG-59348: strain CCUG-59348
How it was run: (§2)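 Up to four strains per species were tested in cation-adjusted Mueller-Hinton broth, with inoculum made by direct colony suspension from 18-24 hour Mueller-Hinton agar plates, adjusted to 0.5 McFarland. Duplicates differing by under 2-fold gave the lower value; greater spread voided the run. Values are relative to Polymyxin B.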

Acinetobacter baumannii [6] = test: MIC, sole activity (no second agent); type: cell-based; conditions: in the absence of Rifampicin; for MIC A. baumannii ATCC13424: strain ATCC13424; for MIC A. baumannii ATCCBAA-747: strain ATCCBAA-747; for MIC A. baumannii CCUG57249: strain CCUG 57249
How it was run: as §2

Pseudomonas aeruginosa [7] = test: MIC, sole activity (no second agent); type: cell-based; conditions: in the absence of Rifampicin; for MIC P. aeruginosa ATCC 27853: strain ATCC27853; for MIC P. aeruginosa ATCC-47: strain ATCC-47; for MIC P. aeruginosa ATCCCRM-9027: strain ATCCCRM-9027; for MIC P. aeruginosa CCUG 59626: strain CCUG 59626
How it was run: as §2

Escherichia coli [8] = test: MIC, sole activity (no second agent); type: cell-based; conditions: in the absence of Rifampicin; for MIC E. coli ATCC25922: strain ATCC25922; for MIC E. coli NCTC9001: strain NCTC9001
How it was run: as §2

HK-2 cell line = test: In vitro renal cell toxicity assay (resazurin reduction); type: cell-based, human

CC(C)C[C@@H]1NC(=O)[C@@H](Cc2ccccc2)NC(=O)[C@H](CCN)NC(=O)[C@@H](NC(=O)[C@H](CCN)NC(=O)[C@@H](NC(=O)C[C@H](N)c2ccc3ccccc3c2)C(C)O)CCNC(=O)[C@H](C(C)O)NC(=O)[C@H](CCN)NC(=O)[C@H](CCN)NC1=O (stereo partly drawn) [Example 38, (S)-3-Amino-3-(naphthalene-2-yl)propanoyl polymyxin B nonapeptide, trifluoroacetate salt] (X6-[Thr(3ξ)][Dab][Dab][Dab][dF]L[Dab][Dab][Thr(3ξ)]; lactam 3-C)
effect on thigh burdens (P. aeruginosa ATCC 27853): did not affect thigh burdens significantly
reduction of thigh burdens (P. aeruginosa ATCC 27853): 4.9 Log10 CFU/g
Log reduction from vehicle (CFU/g) (P. aeruginosa ATCC 27853; 2 mg/kg): −0.37 log CFU/g
Log reduction from vehicle (CFU/g) (P. aeruginosa ATCC 27853; 4 mg/kg): 4.94 log CFU/g
MIC K. pneumoniae ATCC-BAA-2146 (Klebsiella pneumoniae [1]): 0.5 micrograms/mL
MIC K. pneumoniae CCUG-59348 (Klebsiella pneumoniae [1]; strain CCUG-59348): 2 micrograms/mL
MIC A. baumannii ATCC BAA-747 (Acinetobacter baumannii [2]): 0.25 micrograms/mL
MIC A. baumannii CCUG57249 (Acinetobacter baumannii [2]): 0.25 micrograms/mL
MIC A. baumannii NCTC 13424 (Acinetobacter baumannii [2]): 0.25 micrograms/mL
MIC P. aeruginosa ATCC 27853 (Pseudomonas aeruginosa [3]): 0.25 micrograms/mL
MIC P. aeruginosa ATCC CRM-9027 (Pseudomonas aeruginosa [3]): 0.5 micrograms/mL
MIC P. aeruginosa ATCC-47 (Pseudomonas aeruginosa [3]): 0.25 micrograms/mL
MIC P. aeruginosa CCUG 59626 (Pseudomonas aeruginosa [3]): 0.5 micrograms/mL
MIC E. coli ATCC25922 (Escherichia coli [4]): 0.5 micrograms/mL
MIC K. pneumoniae ATCC-BAA2146 (Klebsiella pneumoniae [5]): 8 micrograms/mL
MIC K. pneumoniae CCUG-59348 (Klebsiella pneumoniae [5]): >32 micrograms/mL
MIC A. baumannii ATCC13424 (Acinetobacter baumannii [6]): 1 micrograms/mL
MIC A. baumannii ATCCBAA-747 (Acinetobacter baumannii [6]): 0.5 micrograms/mL
MIC A. baumannii CCUG57249 (Acinetobacter baumannii [6]): 4 micrograms/mL
MIC P. aeruginosa ATCC 27853 (Pseudomonas aeruginosa [7]): 0.25 micrograms/mL
MIC P. aeruginosa ATCC-47 (Pseudomonas aeruginosa [7]): 0.25 micrograms/mL
MIC P. aeruginosa ATCCCRM-9027 (Pseudomonas aeruginosa [7]): 0.25 micrograms/mL
MIC P. aeruginosa CCUG 59626 (Pseudomonas aeruginosa [7]): 0.125 micrograms/mL
MIC E. coli ATCC25922 (Escherichia coli [8]): 4 micrograms/mL
MIC E. coli NCTC9001 (Escherichia coli [8]): 8 micrograms/mL

CC(C)C[C@@H]1NC(=O)[C@@H](Cc2ccccc2)NC(=O)[C@H](CCN)NC(=O)[C@@H](NC(=O)[C@H](CN)NC(=O)[C@@H](NC(=O)CC(N)C2CCCCC2)C(C)O)CCNC(=O)[C@H](C(C)O)NC(=O)[C@H](CCN)NC(=O)[C@H](CCN)NC1=O (stereo partly drawn) [Example 47, [3-Amino-3-cyclohexyl-propionyl]-L-Thr-L-Dap-polymyxin B heptapeptide, TFA salt] ({ξβ3hGly(cHex)}-[Thr(3ξ)][Dap][Dab][Dab][dF]L[Dab][Dab][Thr(3ξ)]; lactam 3-C)
effect on thigh burdens (P. aeruginosa ATCC 27853): did not affect thigh burdens significantly
reduction of thigh burdens (P. aeruginosa ATCC 27853): 1.1 Log10 CFU/g
Log reduction from vehicle (CFU/g) (P. aeruginosa ATCC 27853; 2 mg/kg): −0.09 log CFU/g
Log reduction from vehicle (CFU/g) (P. aeruginosa ATCC 27853; 4 mg/kg): 1.07 log CFU/g
MIC K. pneumoniae ATCC 4352 (Klebsiella pneumoniae [1]; strain ATCC 4352): 0.125 micrograms/mL
MIC K. pneumoniae ATCC-BAA-2146 (Klebsiella pneumoniae [1]): 0.25 micrograms/mL
MIC A. baumannii ATCC BAA-747 (Acinetobacter baumannii [2]): ≤0.06 micrograms/mL
MIC A. baumannii CCUG57249 (Acinetobacter baumannii [2]): ≤0.06 micrograms/mL
MIC A. baumannii NCTC 13423 (Acinetobacter baumannii [2]; strain NCTC 13423): 0.125 micrograms/mL
MIC A. baumannii NCTC 13424 (Acinetobacter baumannii [2]): 0.125 micrograms/mL
MIC P. aeruginosa ATCC 27853 (Pseudomonas aeruginosa [3]): 0.125 micrograms/mL
MIC P. aeruginosa ATCC CRM-9027 (Pseudomonas aeruginosa [3]): 0.125 micrograms/mL
MIC P. aeruginosa ATCC-47 (Pseudomonas aeruginosa [3]): 0.125 micrograms/mL
MIC P. aeruginosa CCUG 59626 (Pseudomonas aeruginosa [3]): 0.125 micrograms/mL
MIC E. coli ATCC25922 (Escherichia coli [4]): ≤0.06 micrograms/mL
MIC E. coli NCTC9001 (Escherichia coli [4]; strain NCTC9001): 0.125 micrograms/mL
MIC K. pneumoniae ATCC 4352 (Klebsiella pneumoniae [5]; strain ATCC 4352): 0.5 micrograms/mL
MIC K. pneumoniae ATCC-BAA2146 (Klebsiella pneumoniae [5]): 0.5 micrograms/mL
MIC K. pneumoniae CCUG-59348 (Klebsiella pneumoniae [5]): >32 micrograms/mL
MIC A. baumannii ATCC13424 (Acinetobacter baumannii [6]): 1 micrograms/mL
MIC A. baumannii ATCCBAA-747 (Acinetobacter baumannii [6]): 0.5 micrograms/mL
MIC A. baumannii CCUG57249 (Acinetobacter baumannii [6]): 0.25 micrograms/mL
MIC A. baumannii NCTC 13423 (Acinetobacter baumannii [6]; strain NCTC13423): 0.5 micrograms/mL
MIC P. aeruginosa ATCC 27853 (Pseudomonas aeruginosa [7]): ≤0.06 micrograms/mL
MIC P. aeruginosa ATCC-47 (Pseudomonas aeruginosa [7]): 0.25 micrograms/mL
MIC P. aeruginosa ATCCCRM-9027 (Pseudomonas aeruginosa [7]): ≤0.06 micrograms/mL
MIC P. aeruginosa CCUG 59626 (Pseudomonas aeruginosa [7]): 0.125 micrograms/mL
MIC E. coli ATCC25922 (Escherichia coli [8]): 4 micrograms/mL
MIC E. coli NCTC9001 (Escherichia coli [8]): 4 micrograms/mL

CC(C)C[C@@H]1NC(=O)[C@@H](Cc2ccccc2)NC(=O)[C@H](CCN)NC(=O)[C@@H](NC(=O)[C@H](CCN)NC(=O)[C@@H](NC(=O)Cc2cccc(CN)c2)C(C)O)CCNC(=O)[C@H](C(C)O)NC(=O)[C@H](CCN)NC(=O)[C@H](CCN)NC1=O (some centres unmarked) [Example A1, 2-(3-(Aminomethyl)phenyl) ethanoyl polymyxin B nonapeptide] ({NHCH2(1,3-C6H4)CH2CO}-[Thr(3ξ)][Dab][Dab][Dab][dF]L[Dab][Dab][Thr(3ξ)]; lactam 3-C)
HK-2 IC50 rel to PMB (HK-2 cell line): 8

CC(C)C[C@@H]1NC(=O)[C@@H](Cc2ccccc2)NC(=O)[C@H](CCN)NC(=O)[C@@H](NC(=O)[C@H](CCN)NC(=O)[C@@H](NC(=O)[C@H](CN)NC(=O)CC(N)C2CCCCC2)C(C)O)CCNC(=O)[C@H](C(C)O)NC(=O)[C@H](CCN)NC(=O)[C@H](CCN)NC1=O (stereo partly drawn) [Example A6, [3(R,S)-3-Amino-3-cyclohexanepropanoyl]-L-Dap-polymyxin B nonapeptide] ({ξβ3hGly(cHex)}-[Dap][Thr(3ξ)][Dab][Dab][Dab][dF]L[Dab][Dab][Thr(3ξ)]; lactam 4-C)
HK-2 IC50 rel to PMB (HK-2 cell line): 3
